From patent US6821326B2 (Arch Chemicals, Inc., priority 2002, dated 2004)

Experiments:
[1] = Particle size analysis on a Horiba Laser light scattering particle size analyzer; type: physicochemical; conditions: commercial powder before low shear mixing into xylene dispersion (Comparative Example A)
Experimental: As a comparison to the dispersions of the present invention, 13 grams “LAROFLEX MP25” polymer resin (vinyl chloride-isobutyl vinyl ether copolymer, a product of BASF Corporation, Charlotte, N.C.) was dissolved into 832 grams of xylene. […] The mixture was stirred at low speed (1000 rpm) and with low shear for 0.5 hours to provide adequate mixing until a homogenous mixture was achieved.
The diluted sample was then run though a Mini Zeta Netzsch mill for 150 minutes at 2000 rpm.

[2] = rats, powder, compared with zinc pyrithione powder; cited from earlier work

On1ccccc1=S.On1ccccc1=S.[Cu] [Copper Pyrithione, copper pyrithione]
Mean Particle Size [1]: 3.09 Microns
Median Particle Size [1]: 3.40 Microns
acute inhalation toxicity [2]: more toxic than zinc pyrithione powder
